pEC50, pIC50, pKi: −log10 of the molar value.
What was measured:
[1] = target: T1, Adenosine receptor A3 (Homo sapiens) (UniProt P0DMS8); test: Agonist activity at human recombinant adenosine A3 receptor expressed in CHO cells assessed as inhibition of forskolin-stimulated cAMP production at 10 uM treated 45 mins before forskolin challenge measured after 15 mins by radioimmunoassay relative to NECA; type: functional, cell-based
T1 sequence (whole entry): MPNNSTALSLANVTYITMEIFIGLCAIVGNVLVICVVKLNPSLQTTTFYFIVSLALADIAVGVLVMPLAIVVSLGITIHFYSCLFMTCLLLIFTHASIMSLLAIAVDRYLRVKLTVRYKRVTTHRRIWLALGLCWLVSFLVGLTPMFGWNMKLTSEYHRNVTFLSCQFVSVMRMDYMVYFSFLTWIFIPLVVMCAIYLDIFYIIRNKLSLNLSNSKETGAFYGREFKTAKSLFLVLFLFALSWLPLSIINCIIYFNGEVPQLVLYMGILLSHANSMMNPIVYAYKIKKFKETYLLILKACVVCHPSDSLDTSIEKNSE

Adenosine receptor A2a [2] = target: T2, Adenosine receptor A2a (Homo sapiens, UniProt P29274); test: Inhibition of [3H]CGS21680 binding to human adenosine A2A receptor expressed in HEK293 cells at 10 uM after 60 mins by liquid scintillation counting; type: cell-based
T2 sequence (P29274 whole entry): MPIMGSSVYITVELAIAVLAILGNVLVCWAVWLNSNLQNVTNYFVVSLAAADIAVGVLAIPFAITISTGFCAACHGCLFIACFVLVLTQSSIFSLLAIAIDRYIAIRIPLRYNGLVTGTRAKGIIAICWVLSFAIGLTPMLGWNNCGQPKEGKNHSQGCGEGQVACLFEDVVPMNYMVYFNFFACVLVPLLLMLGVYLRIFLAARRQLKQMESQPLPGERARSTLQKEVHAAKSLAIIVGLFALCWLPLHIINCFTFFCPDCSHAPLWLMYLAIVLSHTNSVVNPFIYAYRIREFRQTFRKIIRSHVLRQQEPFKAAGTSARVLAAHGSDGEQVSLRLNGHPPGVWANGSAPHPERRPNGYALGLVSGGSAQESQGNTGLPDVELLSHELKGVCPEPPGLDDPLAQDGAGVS

Adenosine receptor A1 [3] = target: T3, Adenosine receptor A1 (Homo sapiens, UniProt P30542); test: Displacement of [3H]CCPA from human recombinant adenosine A1 receptor expressed in CHO cells after 60 mins by liquid scintillation counting; type: cell-based
T3 sequence (P30542 whole entry): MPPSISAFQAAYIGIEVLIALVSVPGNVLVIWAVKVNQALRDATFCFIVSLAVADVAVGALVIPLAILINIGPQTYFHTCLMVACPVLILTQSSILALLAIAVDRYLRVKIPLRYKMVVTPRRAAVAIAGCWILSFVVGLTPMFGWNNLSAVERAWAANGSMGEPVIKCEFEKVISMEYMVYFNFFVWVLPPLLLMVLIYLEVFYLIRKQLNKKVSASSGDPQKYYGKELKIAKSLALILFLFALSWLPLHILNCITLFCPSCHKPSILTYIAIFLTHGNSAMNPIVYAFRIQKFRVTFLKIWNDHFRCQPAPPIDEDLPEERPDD

Adenosine receptor A1 [4] = target: T3, Adenosine receptor A1; test: Displacement of [3H]NECA from human recombinant adenosine A1 receptor expressed in CHO cells after 60 mins by liquid scintillation counting; type: cell-based
Adenosine receptor A3 [5] = target: T4, Adenosine receptor A3 (Homo sapiens, UniProt P0DMS8); test: Displacement of [125I]AB-MECA from human recombinant adenosine A3 receptor expressed in CHO cells after 60 mins by gamma counting
T4 sequence (P0DMS8 whole entry): T1 sequence (whole entry)

[6] = target: Adenosine receptors; A1 & A3 (Homo sapiens) (UniProt P30542+P0DMS8); test: Selectivity for human recombinant adenosine A3 receptor over human recombinant adenosine A1 receptor
[7] = target: T5, Adenosine receptor A1 (Homo sapiens) (UniProt P30542); test: Inhibition of [3H]NECA binding to human recombinant adenosine A1 receptor expressed in CHO cells at 10 uM after 60 mins by liquid scintillation counting; type: cell-based
T5 sequence (whole entry): T3 sequence (P30542 whole entry)

Adenosine receptor A2a [8] = target: T2, Adenosine receptor A2a; test: Displacement of [3H]CGS21680 from human adenosine A2A receptor expressed in HEK293 cells after 60 mins by liquid scintillation counting; type: cell-based
Homo sapiens = organism: Homo sapiens; test: Selectivity for human recombinant adenosine A3 receptor over human recombinant adenosine A2A receptor
Adenosine receptor A3 [9] = target: T6, Adenosine receptor A3 (Rattus norvegicus, UniProt P28647); test: Binding affinity to rat adenosine A3 receptor expressed in CHO cells; type: cell-based
T6 sequence (P28647 whole entry): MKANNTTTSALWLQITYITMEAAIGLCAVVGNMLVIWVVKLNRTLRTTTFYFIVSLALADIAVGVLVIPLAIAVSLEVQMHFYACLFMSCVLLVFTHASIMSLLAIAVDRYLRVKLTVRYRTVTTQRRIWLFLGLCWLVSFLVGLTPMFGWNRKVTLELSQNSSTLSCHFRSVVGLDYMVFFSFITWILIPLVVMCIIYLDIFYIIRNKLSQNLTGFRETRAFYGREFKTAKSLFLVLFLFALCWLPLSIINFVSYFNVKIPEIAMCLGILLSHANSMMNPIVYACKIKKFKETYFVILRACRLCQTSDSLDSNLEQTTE

[10] = target: T1, Adenosine receptor A3 (Homo sapiens); conditions: CHO, 10 uM
Description: Inhibition of [125I]AB-MECA binding to human recombinant adenosine A3 receptor expressed in CHO cells at 10 uM after 60 mins by liquid scintillation counting

[11] = target: T5, Adenosine receptor A1 (Homo sapiens); test: Inhibition of [3H]CCPA binding to human recombinant adenosine A1 receptor expressed in CHO cells at 10 uM after 60 mins by liquid scintillation counting; type: cell-based
Adenosine receptor A3 [12] = target: T4, Adenosine receptor A3; test: Agonist activity at human recombinant adenosine A3 receptor expressed in CHO cells assessed as inhibition of forskolin-stimulated cAMP production treated 45 mins before forskolin challenge measured after 15 mins by radioimmunoassay relative to NECA; type: functional, cell-based

Row | SMILES | Efficacy [1] [%] | inhibition (Adenosine receptor A2a [2]) [%] | pKi (Adenosine receptor A3 [5]) | inhibition [7] [%] | pKi (Adenosine receptor A2a [8]) | further results
1 | CNC(=O)[C@]12C[C@@H]1[C@@H](n1cnc3c(NC4CCCC4)nc(Cl)nc31)[C@H](O)[C@@H]2O | 101 | – | – | – | – | –
2 | CNC(=O)[C@]12C[C@@H]1[C@@H](n1cnc3c(NCc4cccc(Cl)c4)nc(C#CCCCC(=O)OC)nc31)[C@H](O)[C@@H]2O | – | 49 | – | – | – | pKi (Adenosine receptor A1 [3]): 6.32
3 | O[C@@H]1[C@H](O)[C@@H]2C[C@@H]2[C@H]1n1cnc2c(NCc3cccc(I)c3)ncnc21 | 80.8 | – | – | – | – | pKi (Adenosine receptor A1 [4]): 6.08
4 | CNC(=O)[C@]12C[C@@H]1[C@@H](n1cnc3c(NCc4cccc(Cl)c4)nc(C#CCCC(=O)NCCCCN)nc31)[C@H](O)[C@@H]2O | 102 | – | 8.68 | 30 | 6.12 | fold change (FC) [6]: 360; fold change (FC) (Homo sapiens): > 5000; pKi (Adenosine receptor A3 [9]): 8.06
5 | O[C@@H]1[C@H](O)[C@@H]2C[C@@H]2[C@H]1n1cnc2c(NCc3cccc(I)c3)nc(F)nc21 | 19 | – | 7.97 | – | 5.40 | pKi (Adenosine receptor A1 [4]): 6.29
6 | CNC(=O)[C@]12C[C@H]1[C@@H](n1cnc3c(NCc4cccc(Cl)c4)nc(C#CCCCC(=O)O)nc31)[C@@H](O)[C@H]2O | – | 9 | – | – | – | –
7 | O[C@@H]1[C@H](O)[C@@H]2C[C@@H]2[C@H]1n1cnc2c(NC3CCCC3)nc(Cl)nc21 | 95.1 | – | 6.92 | – | 5.79 | pKi (Adenosine receptor A1 [4]): 6.96
8 | O[C@@H]1[C@H](O)[C@@H]2C[C@@H]2[C@H]1n1cnc2c(NCc3cccc(Cl)c3)ncnc21 | 58.3 | – | 8.31 | – | 5.34 | pKi (Adenosine receptor A1 [4]): 5.80; pKi (Adenosine receptor A3 [9]): 7.69
9 | CNC(=O)[C@]12C[C@H]1[C@@H](n1cnc3c(NCc4cccc(Cl)c4)nc(C#CCCC(=O)NCCN)nc31)[C@@H](O)[C@H]2O | 25.6 | 8 | – | – | – | inhibition [10]: 30%; inhibition [11]: 33%
10 | O[C@@H]1[C@H](O)[C@@H]2C[C@@H]2[C@H]1n1cnc2c(NCc3cccc(I)c3)nc(Cl)nc21 | 44 | – | – | – | – | pEC50 (Adenosine receptor A3 [12]): 7.92
11 | CNC(=O)[C@]12C[C@@H]1[C@@H](n1cnc3c(NCc4cccc(Cl)c4)nc(C#CCCC(=O)NCCN)nc31)[C@H](O)[C@@H]2O | 96.9 | – | 8.60 | – | 6.26 | pKi (Adenosine receptor A1 [4]): 5.63
12 | CNC(=O)[C@]12C[C@@H]1[C@@H](n1cnc3c(NCc4cccc(Cl)c4)nc(Cl)nc31)[C@H](O)[C@@H]2O | – | – | – | – | 5.64 | pKi (Adenosine receptor A1 [3]): 6.59
13 | NCCNC(=O)CCC#Cc1nc(NCc2cccc(Cl)c2)c2ncn([C@H]3[C@H](O)[C@H](O)[C@@H]4C[C@@H]43)c2n1 | 0.9 | 35 | 6.39 | 15 | – | fold change (FC) [6]: > 20; fold change (FC) (Homo sapiens): > 20
14 | CNC(=O)[C@]12C[C@H]1[C@@H](n1cnc3c(NCc4cccc(Cl)c4)nc(C#CCCCCC(=O)NCCN)nc31)[C@@H](O)[C@H]2O | 52 | 5 | 5.33 | – | – | inhibition [11]: 36%
15 | CNC(=O)[C@]12C[C@@H]1[C@@H](n1cnc3c(NCc4cccc(Cl)c4)nc(C#CCCCCC(=O)O)nc31)[C@H](O)[C@@H]2O | 74.4 | 38 | 7.91 | 11 | – | –
16 | CNC(=O)[C@]12C[C@@H]1[C@@H](n1cnc3c(NCc4cccc(Cl)c4)nc(C#CCCCCC(=O)NCCN)nc31)[C@H](O)[C@@H]2O | 100 | – | 8.47 | 47 | 6.56 | –
17 | CNC(=O)[C@]12C[C@@H]1[C@@H](n1cnc3c(NCc4cccc(Cl)c4)nc(C#CCCC(=O)NCCNC(=O)CCCCCNC(=O)CCCC[C@H]4SC[C@H]5NC(=O)N[C@H]54)nc31)[C@H](O)[C@@H]2O | 107 | 47 | 7.24 | 12 | – | fold change (FC) [6]: > 170; fold change (FC) (Homo sapiens): 66
18 | CNC(=O)[C@]12C[C@@H]1[C@@H](n1cnc3c(NCc4cccc(Cl)c4)nc(C#CCCC(=O)NCCNCCN)nc31)[C@H](O)[C@@H]2O | 87.6 | – | 7.81 | 33 | 6.05 | –
19 | CNC(=O)C12C[C@@H]1[C@@H](n1cnc3c(NCc4cccc(Cl)c4)nc(C#CCCCC(=O)O)nc31)[C@H](O)[C@@H]2O (single isomer, unassigned) | – | – | – | – | – | pKi (Adenosine receptor A3 [9]): 7.18
20 | CNC(=O)[C@]12C[C@@H]1[C@@H](n1cnc3c(NCc4cccc(Cl)c4)nc(C#CCCC(=O)O)nc31)[C@H](O)[C@@H]2O | 106 | 24 | 7.21 | 17 | – | –
21 | CNC(=O)[C@]12C[C@@H]1[C@@H](n1cnc3c(NCc4cccc(I)c4)ncnc31)[C@H](O)[C@@H]2O | 100 | – | 8.62 | – | 5.21 | pKi (Adenosine receptor A1 [3]): 6.15
22 | CNC(=O)[C@]12C[C@@H]1[C@@H](n1cnc3c(NCc4cccc(Cl)c4)nc(C#CCCC(=O)NCCCN)nc31)[C@H](O)[C@@H]2O | 97.9 | – | 8.51 | 31 | 6.01 | –
23 | CNC(=O)[C@]12C[C@@H]1[C@@H](n1cnc3c(NCc4cccc(Cl)c4)nc(C#CCCC(=O)NCCNC(=O)CCCC[C@H]4SC[C@H]5NC(=O)N[C@H]54)nc31)[C@H](O)[C@@H]2O | 84.5 | 51 | 7.44 | 1 | – | pIC50 (Adenosine receptor A3 [12]): 8.60
24 | CNC(=O)[C@]12C[C@@H]1[C@@H](n1cnc3c(NCc4cccc(Cl)c4)nc(C#CCCCC(=O)NCCN)nc31)[C@H](O)[C@@H]2O | – | 81 | 8.66 | – | – | pKi (Adenosine receptor A1 [3]): 6.34
25 | CNC(=O)[C@]12C[C@@H]1[C@@H](n1cnc3c(NCc4cccc(Cl)c4)nc(C#CCCCCC(=O)OC)nc31)[C@H](O)[C@@H]2O | 85 | – | 7.95 | 20 | 5.45 | –
26 | CNC(=O)[C@]12C[C@@H]1[C@@H](n1cnc3c(NCc4cccc(Cl)c4)nc(C#CCCC(=O)OC)nc31)[C@H](O)[C@@H]2O | 90 | 43 | 8.26 | 41 | – | –
